This assay has as its target T1, Amine oxidase [flavin-containing] A (Homo sapiens, UniProt P21397).
T1 sequence (P21397 whole entry): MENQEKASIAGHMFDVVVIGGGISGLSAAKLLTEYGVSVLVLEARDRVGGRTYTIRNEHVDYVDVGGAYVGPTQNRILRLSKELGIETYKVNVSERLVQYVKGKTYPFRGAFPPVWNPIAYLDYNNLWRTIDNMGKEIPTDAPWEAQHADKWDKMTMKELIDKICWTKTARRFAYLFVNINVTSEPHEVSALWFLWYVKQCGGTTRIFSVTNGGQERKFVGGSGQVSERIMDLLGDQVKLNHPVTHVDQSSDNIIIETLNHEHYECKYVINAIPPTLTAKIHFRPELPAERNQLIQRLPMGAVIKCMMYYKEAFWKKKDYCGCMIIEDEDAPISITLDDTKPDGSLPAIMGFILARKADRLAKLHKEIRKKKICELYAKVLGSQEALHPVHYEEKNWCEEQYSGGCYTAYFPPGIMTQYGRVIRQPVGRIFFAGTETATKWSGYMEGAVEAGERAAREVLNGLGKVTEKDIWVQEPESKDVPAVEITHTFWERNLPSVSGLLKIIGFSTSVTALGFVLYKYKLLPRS
The experiment in a line: Inhibitory concentration against Monoamine oxidase A in human placenta.

The structures appear in SMILES notation.

For `Cc1cc2c(nn1)-c1cc(OCCCC(F)(F)F)ccc1C2=O`, the Ki (commonly the equilibrium dissociation constant of an inhibitor or competing ligand from its target) is approximately 100 µM.

These data come from ChEMBL document CHEMBL1136363, “Rational approaches towards reversible inhibition of type B monoamine oxidase. Design and evaluation of a novel 5H-Indeno[1,2-c]pyridazin-5-one derivative” (Bioorg Med Chem Lett, 2003).
